# Measurements published in US20160331716A1, “MOLECULAR TARGETS FOR HEALING OR TREATING WOUNDS” (UNIVERSITY COLLEGE CARDIFF CONSULTANTS LIMITED, priority 2011, published 2016).
# Columns and labels:
# db/db mice = assay: In vivo efficacy test, ear-punch wound healing in diabetic db/db; conditions: for rate of wound healing: 2-100 mg/ml
# From the text: (§1) The diabetic strain of db/db was obtained from Harlan. 4-6 weeks old with body weight at 20 g were used. Creation of a wound was according to a recently described method. Briefly, after being housed for a week, the db/db were first ear-pieced using an puncher, in order to create a wound (hole) of 1 mm in diameter. The following day after wound creation, all the db/db were weighed and the wound was photographed using a digital camera. Treatment was given systemically (by IP injection) or topically (by manually applying the compound in gel into the wound area). Both treatments were given every other day, twice weekly or weekly. Images were obtained weekly. The size of the wounds was determined using an image analysis software and is shown here as the area in pixels.
# Formulation of the Compounds. • 1. For systemic application, Sodium stibogluconate was dissolved in BSS and diluted in the same for the required concentration. The solutions were prepared that each 100 ul contained the correct amount of compounds and was aliquatted and stored as such at −20° C. until used. The compound was injected every other day by the IP route. • 2. For topical application, we used two carrier gels that are currently used in wound care, namely Bactroban and Aquagel. From the concentrated master stock of Sodium stibogluconate, 100 ul of the stock solution was mixed with 2 grams of the respective gels, followed by low speed homogenisation using a hand held homogeniser, for 2 minutes. […] For use, small amount (150 ul) of the gel was applied to the wound area and gently rubbed in using fingers. • 3. […] Sodium stibogluconate increased the rate of wound healing without producing any side effects. • Sodium stibogluconate was given systemically, at 100 uM.
# Using the same db/db mice, we further tested the possible dose response by applying stibogluconate at 2 mg/ml. 20 mg/ml and 100 mg/ml, using topical applications. At the same time, we tested two treatment methods: applying the agent on a weekly basis or twice weekly basis. We determined the size of the wound on a weekly basis. […] Using a Two-way ANOVA (Holm-Sidak model), it was shown that in both treatment regimes, there was a highly significant difference between the treatment group and control group, p=0.013, […] and 0.009, control vs 2 mg/ml, 20 mg/ml and 100 mg respectively, for the twice weekly treatment, and p=0.05, 0.013, 0.009 for the weekly treatment group.
# HaCaT cells = assay: ECIS wounding (migration) assay, HaCaT keratinocytes; assay type: cell-based, human; conditions: over a range of concentrations
# Description: (§2) Three models of ECIS instrument were used: ECIS 9600 for screening and ECIS1600R and ECIS Z8 for modelling. In all systems, 8W10 arrays were used (Applied Biophysics Inc., Troy, N.Y., USA) (Giaever and Keese 1991, Kees et al 2004). Following treating the array surface with a Cysteine solution (or array stabilization procedure for ECIS Z8), the arrays were incubated with complete medium for 1 hr Electric changes were continuously monitored for up to 24 hrs. In the 9600 system, the monitoring was at fixed […]. In the 1600R and ECIS Zθ systems, cells were monitored at 62.5, 125, 250, 500, 1,000, 2,000, 4,000, 8,000, 16,000, 32,000 and 64,000 Hz. The adhesion was analysed by the integrated Rb modelling method.
# Using the ECIS Theta96 model, we tested the response of cells to stibugluconate over a range of concentrations. HaCaT cells responded over the range of concentrations tested in that there was an increase in cell adhesion between 0.16-20 uM with 20 uM showing the maximum effects, FIGS. 5 & 6. Likewise, the cells also responded to stibogluconate by increasing their migration from concentrations as low as 160 nM to 100 uM, FIGS. 7, 8 & 9.
# [1] = Tolerance in db/db during wound healing study; assay type: in vivo, mice; conditions: systemic, every other day, two week period
# Description: (§3) The first tolerance test was conducted on the CD-1 athymic (Charles River Laboratories). Briefly, CD-1 of 4-6 weeks old, 20 g in weight, were housed in filter topped cages. Sodium stibogluconate a known PTPRK inhibitor was injected, via the intraperitoneal route, on a daily basis. The compound was given at 100 final concentration (equivalent to ˜10 mg/kg body weight) in 100 ul in volume. CD-1 were observed daily, weighed twice weekly. An additional tolerance and efficacy test was carried out using the db/db strain.
# as §1
# Formulation of the Compounds. • 1. For systemic application, Sodium stibogluconate was dissolved in BSS and diluted in the same for the required concentration. The solutions were prepared that each 100 ul contained the correct amount of compounds and was aliquatted and stored as such at −20° C. until used. The compound was injected every other day by the IP route. • 2. For topical application, we used two carrier gels that are currently used in wound care, namely Bactroban and Aquagel. From the concentrated master stock of Sodium stibogluconate, 100 ul of the stock solution was mixed with 2 grams of the respective gels, followed by low speed homogenisation using a hand held homogeniser, for 2 minutes. […]
# HECV cells = assay: ECIS cell adhesion assay, HECV endothelial cells; assay type: cell-based, human
# Description: HaCaT, a human keratinocyte cell line was purchased from the German Cancer Centre, HECV, a human vascular endothelial cells from Interlab, Milan, Italy, DB/DB mice from Harlan UK.
# HaCaT and HECV cells, which were positive for PTPRK, were transfected with anti-PTPRK transgenes by way of electroporation (270 v). After selection with a selection medium (DMEM with 10 ug/ml blasticidin) for 10 days, clones of selected cells were pooled and used for subsequent analysis.
# as §2
# [2] = In vivo tolerance test in CD-1 athymic; conditions: intraperitoneal, daily, ~10 mg/kg body weight
# Description: as §3
# as §3, with “conducted” for “conducted on”, “stibogluconate” for “stibogluconate a known PTPRK inhibitor”, “10” for “˜10”
structure (smiles),measurement,setting,value
"O.O.O.O.O.O.O.O.O.O=C([O-])[C@@H]1[O][Sb]2([O-])([O][Sb]34([OH])[O][C@H]([C@H](O)CO)[C@H]([O]3)[C@H](C(=O)[O-])[O]4)[O][C@H]([C@H](O)CO)[C@@H]1[O]2.[Na+].[Na+].[Na+] [stibogluconate, Sodium stibogluconate]",wound size versus control group,"db/db mice; systemic (IP) at 100 uM, after one week",smaller than the control group
same,"twice weekly versus weekly administration, rate of wound healing",db/db mice; topical,marginally more effective
same,rate of wound healing,"db/db mice; topical, twice weekly application",rapid rate of wound healing
same,rate of wound healing,"db/db mice; topical, weekly application",rapid rate of wound healing
same,effect of interrupting the treatment regimen on healing,"db/db mice; treatment removed between third and fourth week, weekly or twice weekly regimen",adversely affects the healing process
same,effect on the migration of the cells (keratinocytes),HaCaT cells,concentration dependent effect
same,side effects,[1],did not observe any side effects
same,tolerance,[1],well tolerated
same,weight loss,[1],no weight loss
same,cell adhesion to the surface of the electrode (ECIS),HECV cells; HECV/WT treated with stibogluconate,rapid adhesion
same,response to stibogluconate of HECV/PTPRKrib cells compared with HECV/WT,"HECV cells; PTPRK knock-down cells, ECIS adhesion",markedly reduced
same,tolerance in vivo,[2],Well Tolerated
